Data from ChEMBL document CHEMBL5576081, “Exploring the structural activity relationship of the Osimertinib: A covalent inhibitor of double mutant EGFRL858R/T790M tyrosine kinase for the treatment of Non-Small Cell Lung Cancer (NSCLC)” (Bioorg Med Chem, 2024).
One block for each molecule: values may come before it.

Legend:
[1] = target: T1, Epidermal growth factor receptor (Homo sapiens, UniProt P00533, L858R/T790M); test: Inhibition of EGFR L858R/T790M (unknown origin)
[2] = test system: NCI-H1975; test: Cytotoxicity against human NCI-H1975 cells assessed as reduction in cell viability incubated for 48 hrs by CCK-8 assay; type: functional, cell-based; conditions: NCI-H1975, 48 h
[3] = test system: PC-9; test: Cytotoxicity against human PC-9 cells assessed as reduction in cell viability incubated for 48 hrs by CCK-8 assay; type: functional, cell-based; conditions: PC-9, 48 h
[4] = test system: NCI-H292; test: Cytotoxicity against human NCI-H292 cells assessed as reduction in cell viability incubated for 48 hrs by CCK-8 assay; type: functional, cell-based; conditions: NCI-H292, 48 h
[5] = Antiproliferative activity against mouse KC-0116 cells; type: toxicity, cell-based
[6] = Antiproliferative activity against mouse Ba/F3 EGFR-T790M/L858R cells incubated for 3 days by Cell Titer-Glo assay; type: functional, cell-based; conditions: 72 h
[7] = test system: NCI-H1975; test: Antiproliferative activity against human NCI-H1975 cells; type: functional, cell-based
[8] = test system: NCI-H1975; test: Antiproliferative activity against human NCI-H1975 cells harboring EGFR L858R/T790M double mutant assessed as reduction in cell growth incubated for 72 hrs by CellTiter-Glo luminescent assay; type: functional, cell-based; conditions: NCI-H1975, 72 h
[9] = test system: PC-9; test: Antiproliferative activity against human PC-9 cells harboring EGFR Del19 mutant assessed as inhibition of cell growth incubated for 72 hrs by CCK8 assay; type: functional, cell-based; conditions: PC-9, 72 h
[10] = test system: LoVo; test: Antiproliferative activity against human LoVo cells harboring wild-type EGFR assessed as reduction in cell growth incubated for 72 hrs by CCK8 assay; type: functional, cell-based
[11] = test system: PC-9; test: Antiproliferative activity against human PC-9 cells harboring EGFR del19 mutant assessed as cell growth inhibition incubated for 72 hrs by CellTiter Glo assay; type: functional, cell-based; conditions: PC-9, 72 h
[12] = test system: LoVo; test: Antiproliferative activity against human LoVo cells harboring wild-type EGFR assessed as reduction in cell viability; type: functional, cell-based
[13] = test system: NCI-H1975; test: Antiproliferative activity against human NCI-H1975 cells assessed as reduction in cell viability incubated for 72 hrs by Cell-titer glo assay; type: functional, cell-based; conditions: NCI-H1975, 72 h
[14] = test system: A-431; test: Antiproliferative activity against human A-431 cells assessed as reduction in cell viability incubated for 48 hrs by MTT assay; type: functional, cell-based; conditions: A-431, 48 h
[15] = target: T1, Epidermal growth factor receptor; test: Inhibition of EGFR L858R/T790M mutant (unknown origin)
[16] = target: Epidermal growth factor receptor (Homo sapiens, UniProt P00533); test: Inhibition of wild-type EGFR (unknown origin) using TK as substrate incubated for 120 mins in presence of ATP by HTRF assay
Sequence of Epidermal growth factor receptor (Homo sapiens, UniProt P00533) (P00533 whole entry): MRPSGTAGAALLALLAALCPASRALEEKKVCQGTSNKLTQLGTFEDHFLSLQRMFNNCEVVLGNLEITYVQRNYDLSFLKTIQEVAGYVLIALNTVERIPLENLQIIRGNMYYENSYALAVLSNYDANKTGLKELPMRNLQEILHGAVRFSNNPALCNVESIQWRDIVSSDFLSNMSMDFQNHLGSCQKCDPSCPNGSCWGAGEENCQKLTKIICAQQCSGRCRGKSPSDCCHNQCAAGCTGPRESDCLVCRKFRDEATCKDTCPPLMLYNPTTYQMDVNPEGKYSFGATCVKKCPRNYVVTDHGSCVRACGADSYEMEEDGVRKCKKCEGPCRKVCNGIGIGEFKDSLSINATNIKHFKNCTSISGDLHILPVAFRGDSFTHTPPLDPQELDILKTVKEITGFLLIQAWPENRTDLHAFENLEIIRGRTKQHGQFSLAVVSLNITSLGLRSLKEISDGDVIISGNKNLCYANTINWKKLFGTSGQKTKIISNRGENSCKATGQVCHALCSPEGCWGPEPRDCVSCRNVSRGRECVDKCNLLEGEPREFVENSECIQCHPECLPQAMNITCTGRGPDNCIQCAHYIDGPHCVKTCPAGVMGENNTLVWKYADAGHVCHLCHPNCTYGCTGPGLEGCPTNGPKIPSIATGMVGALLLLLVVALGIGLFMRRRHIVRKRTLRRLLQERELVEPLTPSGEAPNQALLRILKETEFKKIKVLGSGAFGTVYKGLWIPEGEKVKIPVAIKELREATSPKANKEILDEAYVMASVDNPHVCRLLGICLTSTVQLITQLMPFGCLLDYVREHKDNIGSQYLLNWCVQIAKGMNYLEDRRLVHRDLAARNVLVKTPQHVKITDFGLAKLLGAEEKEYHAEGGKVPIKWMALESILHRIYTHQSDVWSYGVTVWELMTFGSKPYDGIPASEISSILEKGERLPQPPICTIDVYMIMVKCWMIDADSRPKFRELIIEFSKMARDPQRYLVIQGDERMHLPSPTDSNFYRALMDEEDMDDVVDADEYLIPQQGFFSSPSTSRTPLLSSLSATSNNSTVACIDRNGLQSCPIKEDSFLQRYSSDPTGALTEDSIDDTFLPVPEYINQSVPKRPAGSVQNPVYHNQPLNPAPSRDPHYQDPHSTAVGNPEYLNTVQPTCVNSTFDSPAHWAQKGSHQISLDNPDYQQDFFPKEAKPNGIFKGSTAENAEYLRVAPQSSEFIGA

T1 sequence (P00533 25-1210 T790M/L858R limits assumed): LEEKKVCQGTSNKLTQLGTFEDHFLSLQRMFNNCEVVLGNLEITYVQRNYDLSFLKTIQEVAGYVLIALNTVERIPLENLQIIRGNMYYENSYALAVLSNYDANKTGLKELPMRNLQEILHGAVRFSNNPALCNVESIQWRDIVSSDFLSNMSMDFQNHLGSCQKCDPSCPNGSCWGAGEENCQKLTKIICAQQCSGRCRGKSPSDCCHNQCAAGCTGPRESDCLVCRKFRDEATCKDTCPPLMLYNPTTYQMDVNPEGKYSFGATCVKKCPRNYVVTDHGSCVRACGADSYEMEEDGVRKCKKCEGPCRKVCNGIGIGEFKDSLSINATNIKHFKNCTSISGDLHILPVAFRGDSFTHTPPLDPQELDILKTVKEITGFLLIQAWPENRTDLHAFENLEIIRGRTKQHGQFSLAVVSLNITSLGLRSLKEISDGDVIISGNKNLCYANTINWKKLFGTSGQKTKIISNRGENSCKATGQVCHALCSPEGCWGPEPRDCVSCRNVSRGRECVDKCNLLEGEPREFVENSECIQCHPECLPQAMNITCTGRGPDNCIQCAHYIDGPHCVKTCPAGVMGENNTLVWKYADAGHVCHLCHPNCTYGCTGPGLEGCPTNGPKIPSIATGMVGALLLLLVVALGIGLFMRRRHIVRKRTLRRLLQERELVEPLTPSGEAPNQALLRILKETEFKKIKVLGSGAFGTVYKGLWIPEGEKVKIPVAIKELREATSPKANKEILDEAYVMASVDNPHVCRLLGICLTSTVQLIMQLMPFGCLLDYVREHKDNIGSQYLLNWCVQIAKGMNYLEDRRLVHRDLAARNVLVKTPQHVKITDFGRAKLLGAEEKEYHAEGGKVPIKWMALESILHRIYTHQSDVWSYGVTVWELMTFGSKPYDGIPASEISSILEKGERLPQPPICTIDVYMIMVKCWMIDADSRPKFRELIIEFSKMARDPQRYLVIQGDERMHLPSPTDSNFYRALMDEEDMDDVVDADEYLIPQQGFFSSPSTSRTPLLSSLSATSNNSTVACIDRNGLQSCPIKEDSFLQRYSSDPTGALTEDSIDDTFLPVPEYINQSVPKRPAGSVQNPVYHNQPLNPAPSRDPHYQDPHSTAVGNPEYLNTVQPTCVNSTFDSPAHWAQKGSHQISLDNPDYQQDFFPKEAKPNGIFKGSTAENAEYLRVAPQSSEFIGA

IC50 [1]: 137 nM
Structure (SMILES): COc1cc(N(C)CCN(C)C)c(NC(=O)c2ccnc(Cl)c2)cc1Nc1nccc(-c2cn(CCCO)c3ccccc23)n1

IC50 [7]: 20 nM
IC50 [1]: 8.1 nM
Structure (SMILES): C=CC(=O)Nc1cc(Nc2nccc(-c3cn(C)c4ccccc34)n2)c(OC)cc1N(C)CCN(C)Cc1ccc(Br)cc1

IC50 [1]: 8 nM
Structure (SMILES): C=CC(=O)Nc1cc(Nc2nccc(Nc3cnn(CC)c3)n2)c(OC)cc1N(C)CCN(C)C

IC50 [8]: 0.6 nM
IC50 [9]: 2 nM
IC50 [10]: 145 nM
Structure (SMILES): C=CC(=O)Nc1cc(Nc2ncc(Cl)c(-c3cnn4ccccc34)n2)c(OC)cc1N(C)CCN(C)C

IC50 [1]: 242 nM
Structure (SMILES): COc1cc(N(C)CCN(C)C)c(NC(=O)c2ccncn2)cc1Nc1nccc(-c2cn(C)c3ccccc23)n1

IC50 [8]: 0.2 nM
IC50 [11]: 0.6 nM
IC50 [12]: 11 nM
Structure (SMILES): C=CC(=O)Nc1cc(Nc2ncc(Cl)c(-c3c[nH]c4ccccc34)n2)c(OC)cc1N(C)CCN(C)C

IC50 [8]: 1 nM
IC50 [12]: 71 nM
Structure (SMILES): C=CC(=O)Nc1cc(Nc2ncc(C)c(-c3cn(C)c4ccccc34)n2)c(OC)cc1N(C)CCN(C)C

IC50 [8]: 16 nM
IC50 [9]: 73 nM
IC50 [10]: 10000 nM
Structure (SMILES): C=CC(=O)Nc1cc(Nc2ncc(Cl)c(-c3cnn4ccccc34)n2)c(OC)cc1N1CCN(C(=O)CN(C)C)CC1

IC50 [7]: 2 nM
IC50 [1]: 2 nM
Structure (SMILES): C=CCCN(C)CCN(C)c1cc(OC)c(Nc2nccc(-c3cn(C)c4ccccc34)n2)cc1NC(=O)C=C

IC50 [1]: > 500 nM
Structure (SMILES): COc1cc(N(C)CCN(C)C)c(NC(=O)c2cnccn2)cc1Nc1nccc(-c2cn(C)c3ccccc23)n1

IC50 [8]: 2 nM
IC50 [11]: 2 nM
IC50 [12]: 33 nM
Structure (SMILES): C=CC(=O)Nc1cc(Nc2nccc(-c3c[nH]c4ccccc34)n2)c(OC)cc1N(C)CCN(C)C

IC50 [7]: 8 nM
IC50 [1]: 5.7 nM
Structure (SMILES): C=CC(=O)Nc1cc(Nc2nccc(-c3cn(C)c4ccccc34)n2)c(OC)cc1N(C)CCN(C)CC(=O)OC

IC50 [1]: 8.58 nM
Structure (SMILES): C#CCN(C)CCN(C)c1cc(OC)c(Nc2nccc(Nc3ccn(C)n3)n2)cc1NC(=O)C=C

IC50 [13]: 8.15 nM
IC50 [14]: 59 nM
Structure (SMILES): C=CC(=O)Nc1cc(Nc2ncc(Cl)c(-c3cn(C4CC4)c4ccccc34)n2)c(OC)cc1N(C)CCN(C)C

IC50 [1]: 42.3 nM
Structure (SMILES): C=CC(=O)Nc1cc(Nc2nccc(Nc3ccn(C)n3)n2)c(OC)cc1N(C)CCN(C)CC(=O)OC

IC50 [7]: 30 nM
IC50 [1]: 12.5 nM
Structure (SMILES): C=CC(=O)Nc1cc(Nc2nccc(-c3cn(C)c4ccccc34)n2)c(OC)cc1N(C)CCN(C)C(=O)c1ccc(Br)cc1

IC50 [7]: 4 nM
Structure (SMILES): C=CC(=O)Nc1cc(Nc2nccc(-c3cn(C)c4ccccc34)n2)c(OC)cc1N(C)CCN(C)Cc1ccccc1

IC50 [1]: 6.1 nM
Structure (SMILES): C=CC(=O)Nc1cc(Nc2nccc(Nc3ccn(C)n3)n2)c(OC)cc1N(C)CCN(C)C

IC50 [1]: > 500 nM
Structure (SMILES): COc1cc(N(C)CCN(C)C)c(NC(=O)c2ncccn2)cc1Nc1nccc(-c2cn(C)c3ccccc23)n1

IC50 [15]: 0.26 nM
IC50 [16]: 4.11 nM
Structure (SMILES): C=CC(=O)Nc1cc(Nc2nccc(-c3csc4ccccc34)n2)c(OC)cc1N(C)CCN(C)C
IC50 [2]: 2 nM
IC50 [3]: 4 nM
IC50 [4]: 4400 nM

IC50 [1]: 161 nM
Structure (SMILES): COc1cc(N(C)CCN(C)C)c(NC(=O)c2ccncn2)cc1Nc1nccc(-c2cn(CCCO)c3ccccc23)n1

IC50 [8]: 0.9 nM
IC50 [11]: 2 nM
IC50 [12]: 46 nM
Structure (SMILES): C=CC(=O)Nc1cc(Nc2ncc(C#N)c(-c3cn(C)c4ccccc34)n2)c(OC)cc1N(C)CCN(C)C

IC50 [8]: 2 nM
IC50 [11]: 2 nM
IC50 [12]: 58 nM
Structure (SMILES): C=CC(=O)Nc1cc(Nc2ncc(Cl)c(-c3cn(C)c4ccccc34)n2)c(OC)cc1N(C)CCN(C)C

IC50 [1]: > 500 nM
Structure (SMILES): COc1cc(N(C)CCN(C)C)c(NC(=O)c2ccncc2OC)cc1Nc1nccc(-c2cn(C)c3ccccc23)n1

IC50 [1]: 420 nM
Structure (SMILES): COc1cc(N(C)CCN(C)C)c(NC(=O)c2ccnc(Cl)c2)cc1Nc1nccc(-c2cn(C)c3ccccc23)n1

IC50 [8]: 2 nM
IC50 [9]: 16 nM
IC50 [10]: 3360 nM
Structure (SMILES): C=CC(=O)Nc1cc(Nc2ncc(Cl)c(-c3cnn4ccccc34)n2)c(OC)cc1N1CC[C@@H](N(C)C)C1

IC50 [9]: 21 nM
IC50 [10]: 938 nM
Structure (SMILES): C=CC(=O)Nc1cc(Nc2ncc(Cl)c(-c3cnn4ccccc34)n2)c(OC)cc1N1CC(N(C)C)C1

The remaining lines, values behind:

Structure (SMILES): C=CC(=O)Nc1cc(Nc2nccc(-c3csc4ccccc34)n2)c(OC)cc1N1CCN(CC)CC1
IC50 [2]: 90 nM
IC50 [3]: 800 nM
IC50 [4]: > 10000 nM

Structure (SMILES): C=CC(=O)Nc1cc(Nc2nccc(-c3csc4ccccc34)n2)c(OC)cc1N1CCN(C)CC1
IC50 [2]: 500 nM
IC50 [3]: 1900 nM
IC50 [4]: > 10000 nM

Structure (SMILES): COc1cc(N2CCC(N3CCN(C)CC3)CC2)ccc1Nc1ncc(Cl)c(Nc2ccccc2P(C)(C)=O)n1 [BRIGATINIB]
IC50 [5]: 350 nM
IC50 [6]: 450 nM

Structure (SMILES): COCC(=O)Nc1cc(Nc2nccc(-c3cn(C)c4ccccc34)n2)c(OC)cc1N1CCC(N(C)C)CC1
IC50 [5]: 460 nM
IC50 [6]: 450 nM

Structure (SMILES): C=CC(=O)Nc1cc(Nc2ncc(Cl)c(-c3cnn4ccccc34)n2)c(OC)cc1N1CCN(C(=O)[C@H](C)N)CC1
IC50 [8]: 19 nM
IC50 [9]: 28 nM
IC50 [10]: 1600 nM

Structure (SMILES): Cn1cc(-c2ccnc(Nc3ccc(N4CCOCC4)cc3)n2)c2ccccc21
IC50 [5]: 7000 nM
IC50 [6]: > 10000 nM

Structure (SMILES): CN1CCN(C2CCN(c3ccc(Nc4nccc(-c5cn(C)c6ccccc56)n4)cc3NS(=O)(=O)C3CC3)CC2)CC1
IC50 [5]: 170 nM
IC50 [6]: 200 nM

Structure (SMILES): C=CC(=O)Nc1cc(Nc2ncc(F)c(-c3csc4ccccc34)n2)c(OC)cc1N(C)CCNC(C)C
IC50 [2]: 13 nM
IC50 [3]: 30 nM
IC50 [4]: 3960 nM

Structure (SMILES): C=CC(=O)Nc1cc(Nc2nccc(-c3csc4ccccc34)n2)c(OC)cc1N1CCN(C(C)C)CC1
IC50 [2]: 130 nM
IC50 [3]: 1300 nM
IC50 [4]: > 10000 nM

Structure (SMILES): C=CC(=O)Nc1cc(Nc2ncc(Cl)c(-c3cnn4ccccc34)n2)c(OC)cc1N1CCN(C(=O)[C@H](C)O)CC1
IC50 [8]: 75 nM
IC50 [9]: 179 nM
IC50 [10]: 10300 nM

Structure (SMILES): CN(C)C1CCN(c2ccc(Nc3nccc(-c4cn(C)c5ccccc45)n3)cc2NS(C)(=O)=O)CC1
IC50 [5]: 160 nM
IC50 [6]: 170 nM

Structure (SMILES): Cn1cc(-c2ccnc(Nc3ccc(N4CCC(N5CCOCC5)CC4)cc3)n2)c2ccccc21
IC50 [5]: 1710 nM
IC50 [6]: 5740 nM

Structure (SMILES): Cn1cc(-c2ccnc(Nc3ccc(N4CCCCC4)cc3)n2)c2ccccc21
IC50 [5]: 10000 nM
IC50 [6]: > 10000 nM

Structure (SMILES): CN(C)C1CCN(c2ccc(Nc3nccc(-c4cn(C)c5ccccc45)n3)cc2)CC1
IC50 [5]: 400 nM
IC50 [6]: 450 nM

Structure (SMILES): COc1cc(N(C)CCN(C)C)c(NC(=O)CN)cc1Nc1nccc(-c2cn(C)c3ccccc23)n1
IC50 [5]: 1320 nM
IC50 [6]: 2720 nM

Structure (SMILES): CN(C)C1CCN(c2ccc(Nc3nccc(-c4cn(C)c5ccccc45)n3)cc2NS(=O)(=O)C2CC2)CC1
IC50 [5]: 240 nM
IC50 [6]: 250 nM

Structure (SMILES): C=CC(=O)Nc1cc(Nc2ncc(Cl)c(-c3cnn4ccccc34)n2)c(OC)cc1N1CCN(C(=O)[C@@H](C)N)CC1
IC50 [8]: 177 nM
IC50 [9]: 351 nM
IC50 [10]: 9000 nM

Structure (SMILES): COc1cc(N2CCC(N(C)C)CC2)c(NC(=O)CO)cc1Nc1nccc(-c2cn(C)c3ccccc23)n1
IC50 [5]: 460 nM
IC50 [6]: 480 nM

Structure (SMILES): COc1cc(N(C)CCN(C)C)c(NC(=O)CNC(=O)OC(C)(C)C)cc1Nc1nccc(-c2cn(C)c3ccccc23)n1
IC50 [5]: 1290 nM
IC50 [6]: 1280 nM

Structure (SMILES): C=CC(=O)Nc1cc(Nc2nccc(-c3cn(C)c4ccccc34)n2)c(OC)cc1N(C)CCN(C)C [OSIMERTINIB]
IC50 [4]: 2000 nM

Structure (SMILES): Cn1cc(-c2ccnc(Nc3cccc(NC(=O)CCN)c3)n2)c2ccccc21
IC50 [5]: 4990 nM
IC50 [6]: 4770 nM

Structure (SMILES): C=CC(=O)Nc1cc(Nc2ncc(Cl)c(-c3cnn4ccccc34)n2)c(OC)cc1N1CCN(C(=O)CNC)CC1
IC50 [8]: 66 nM
IC50 [9]: 156 nM
IC50 [10]: 7500 nM

Structure (SMILES): C=CC(=O)Nc1cc(Nc2nccc(-c3csc4ccccc34)n2)c(OC)cc1N(C)CCCN(C)C
IC50 [2]: 170 nM
IC50 [3]: 300 nM
IC50 [4]: 4000 nM
